Here are results for eight compounds from ChEMBL document CHEMBL3612022, “Regioselectively controlled synthesis of 3(5)-(trifluoromethyl)pyrazolylbenzenesulfonamides and their effects on a pathological pain model in mice” (Eur J Med Chem, 2015).

Calls of active or inactive are those of the source.

Series [1] has as its system Mus musculus. Kind of series: Antihyperalgesic effect in Swiss mouse assessed as inhibition of CFA-induced paw withdrawal threshold at 300 mg/kg, po after 2 hrs. It counts as functional.
Series [2] deals with Mus musculus. The series is described as follows: Locomotor activity in Swiss mouse assessed as motor impairment at 300 mg/kg, po by rotarod test. It counts as toxicity, organism-based. Particulars: in vivo.
In series [3] the test system is Mus musculus. The series is described as follows: Locomotor activity in Swiss mouse assessed as motor impairment at 300 mg/kg, po by open-field test. Particulars: in vivo. It counts as toxicity, organism-based.
The test system of series [4] is Mus musculus. Kind of series: Antiedematogenic effect in Swiss mouse assessed as inhibition of CFA-induced paw edema at 300 mg/kg, po after 2 hrs. It counts as functional.
Series [5] concerns Mus musculus. The series is described as follows: Antiedematogenic effect in Swiss mouse assessed as inhibition of CFA-induced paw edema at 300 mg/kg, po after 1 to 6 hrs. It counts as functional, organism-based.
Series [6] concerns Mus musculus. The series is described as follows: Antihyperalgesic effect in po dosed Swiss mouse assessed as inhibition of CFA-induced paw withdrawal threshold after 2 hrs. Format: functional.
The subject of series [7] is Mus musculus. Kind of series: Antihyperalgesic effect in Swiss mouse assessed as inhibition of CFA-induced paw withdrawal threshold at 300 mg/kg, po after 0.5 to 6 hrs. Format: functional, organism-based.

Turning to `NS(=O)(=O)c1ccc(N2N=C(c3ccc(Br)cc3)CC2(O)C(F)(F)F)cc1` (stereo not drawn), the figures for the inhibition in vivo at 300 mg/kg in the series with Mus musculus [1] and with Mus musculus [4] were 57% and 46%, respectively. Moreover, the Activity result with Mus musculus [2] and in the series with Mus musculus [3] was “Non-toxic” each time.

Consider `NS(=O)(=O)c1ccc(N2N=C(c3ccccc3)CC2(O)C(F)(F)F)cc1` (stereo not drawn), for which the figures for the inhibition in vivo at 300 mg/kg in the series with Mus musculus [1] and with Mus musculus [4] were 52% and 44%, respectively. Further, the Activity entry in the series on Mus musculus [2] and with Mus musculus [3] was “Non-toxic” throughout.

With `NS(=O)(=O)c1ccc(N2N=C(c3ccc(F)cc3)CC2(O)C(F)(F)F)cc1` (stereo not drawn), the inhibition in vivo at 300 mg/kg in the series on Mus musculus [1] stood at 62%. Moreover, the Activity entry in the series with Mus musculus [2] and with Mus musculus [3] was “Non-toxic” each time.

For the compound `Cc1ccc(C2=NN(c3ccc(S(N)(=O)=O)cc3)C(O)(C(F)(F)F)C2)cc1` (stereo not drawn), the inhibition in vivo at 300 mg/kg turned out to be 64% with Mus musculus [1] and 45% in the series on Mus musculus [4]. The inhibition result in the series on Mus musculus [5] and in the series on Mus musculus [7] was “Active” each time. The Activity entry in the series with Mus musculus [2] and with Mus musculus [3] was “Non-toxic” in each case. Moreover, in the series with Mus musculus [6], the IC turned out to be 539.3 mg/kg.

For `Cc1ccc(-c2cc(C(F)(F)F)nn2-c2ccc(S(N)(=O)=O)cc2)cc1` [CELECOXIB], the inhibition in vivo at 300 mg/kg with Mus musculus [1] is 77%; in the series on Mus musculus [4], 53%. In addition, the IC in the series on Mus musculus [6] was determined as 652.1 mg/kg. Besides, the inhibition entry in the series on Mus musculus [7] was “Active”.

`NS(=O)(=O)c1ccc(N2N=C(c3ccc(Cl)cc3)CC2(O)C(F)(F)F)cc1` (stereo not drawn): the inhibition in vivo at 300 mg/kg in the series with Mus musculus [1] is 57%. Besides, the Activity result in the series with Mus musculus [2] and in the series with Mus musculus [3] was “Non-toxic” throughout.

In the case of `COc1ccc(C2=NN(c3ccc(S(N)(=O)=O)cc3)C(O)(C(F)(F)F)C2)cc1` (stereo not drawn), the inhibition result in the series on Mus musculus [1] was “inactive”. For the same compound, the Activity result in the series with Mus musculus [2] and in the series with Mus musculus [3] was “Non-toxic” in each case. In addition, the inhibition in vivo at 300 mg/kg with Mus musculus [4] came to 46%.

On to `NS(=O)(=O)c1ccc(N2N=C(c3ccco3)CC2(O)C(F)(F)F)cc1` (stereo not drawn), for which, in the series on Mus musculus [1], the inhibition result was “inactive”. Besides, the Activity result in the series with Mus musculus [2] and with Mus musculus [3] was “Non-toxic” each time. Also, the inhibition in vivo at 300 mg/kg in the series on Mus musculus [4] worked out at 48%.
